The results in this text go back to ChEMBL document CHEMBL1201862, “PubChem BioAssay data set” (2004).

Test systems include HCT-116; RPMI-8226; SK-MEL-5; DU-145; SW-620; HOP-62; SK-MEL-28; HOP-92; COLO 205; MCF7; BT-549; Hs-578T; K562; M14; HT-29; NCI-H460; SF-268; NCI-H226; CAKI-1; HL-60.
Experiment in all cases: NCI-60 cell line screen, 48 h

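1) Cells in 96-well plates. 2) Compound, 48 h, 5 concentrations. 3) Linear interpolation between surrounding doses. 4) Unreached endpoint = highest concentration. At the GI50, growth is halved.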 The source made the active and inactive calls. No stated cut-off is given here; in the data, active = GI50 up to about 1.1 µM and inactive = higher.

Take `O=C1C=C/C(=N/c2cccc3c(/N=C4/C=CC(=O)O4)cccc23)O1`: the GI50 in the experiment on HCT-116 is 24.8 µM (inactive); in the experiment on RPMI-8226, 23.1 µM (inactive); with SK-MEL-5, > 100 µM (inactive); in the experiment with DU-145 it was > 100 µM (inactive); with SW-620, 16.4 µM (inactive); in the experiment with HOP-62, > 100 µM (inactive). For the same compound, the GI50 in the experiment on SK-MEL-28 is 28.3 µM (inactive); in the experiment on HOP-92, 42.7 µM (inactive); in the experiment on COLO 205, 20.2 µM (inactive); with MCF7 it was 33.3 µM (inactive); in the experiment with BT-549, 86.3 µM (inactive); in the experiment on Hs-578T, > 100 µM (inactive). Further, the GI50 is 21.2 µM (inactive) in the experiment with K562; 29.2 µM (inactive) in the experiment on M14; 41.8 µM (inactive) in the experiment on HT-29; > 100 µM (inactive) in the experiment with NCI-H460; 52.6 µM (inactive) in the experiment with SF-268; > 100 µM (inactive) in the experiment on NCI-H226. Besides, the GI50 with CAKI-1 is 18.9 µM (inactive).
For the compound `O=C1N=C(c2ccccc2)O/C1=C\c1ccccc1`, the GI50 with HCT-116, in the experiment on RPMI-8226, in the experiment with SK-MEL-5, with DU-145, in the experiment on SW-620 and in the experiment on HOP-62 was > 100 µM (inactive) each time. Besides, the GI50 in the experiment with SK-MEL-28, in the experiment on HOP-92, in the experiment on COLO 205, with MCF7, in the experiment on BT-549 and in the experiment with Hs-578T was > 100 µM (inactive) each time. Moreover, the GI50 with M14, in the experiment with HT-29, in the experiment with NCI-H460, in the experiment on SF-268, in the experiment on HL-60 and in the experiment on NCI-H226 was > 100 µM (inactive) each time. Also, the GI50 in the experiment with CAKI-1 was > 100 µM (inactive).
For the compound `O=[N+]([O-])c1ccc2c(c1)nc(Cc1ccc(Cl)cc1)n2C[C@@H]1CCCN2CCCCC12` (stereo partly drawn), the GI50 is 10.5 µM (inactive) in the experiment with HCT-116; 26.3 µM (inactive) in the experiment with RPMI-8226; 14.8 µM (inactive) with SK-MEL-5; 17.7 µM (inactive) in the experiment with DU-145; 20.8 µM (inactive) in the experiment with SW-620; 20.5 µM (inactive) with HOP-62. Further, the GI50 in the experiment on SK-MEL-28 is 14.6 µM (inactive); in the experiment with HOP-92, 6.47 µM (inactive); in the experiment with COLO 205, 10.4 µM (inactive); with MCF7 it was 0.54 µM (active); with BT-549, 13 µM (inactive); in the experiment with Hs-578T it was 13.5 µM (inactive). Also, the GI50 was 15 µM (inactive) with K562; 9.79 µM (inactive) in the experiment on M14; 8.59 µM (inactive) with HT-29; 14 µM (inactive) in the experiment with NCI-H460; 28.9 µM (inactive) with HL-60; 16.6 µM (inactive) in the experiment with NCI-H226. The GI50 in the experiment with CAKI-1 is 15.2 µM (inactive).
`CCCCCCCCCCCCNC(=O)NCC(OCC)OCC`: the GI50 in the experiment on HCT-116, with RPMI-8226, in the experiment on SK-MEL-5, with DU-145, in the experiment on SW-620 and in the experiment with HOP-62 was > 10 µM (inactive) throughout. In addition, the GI50 with SK-MEL-28, in the experiment on HOP-92, in the experiment on COLO 205, in the experiment on MCF7, in the experiment on BT-549 and with Hs-578T was > 10 µM (inactive) in each case. In addition, the GI50 with K562, in the experiment on M14, in the experiment on HT-29, with NCI-H460, with SF-268 and in the experiment on NCI-H226 was > 10 µM (inactive) in each case. Also, in the experiment with CAKI-1, the GI50 was > 10 µM (inactive).
Regarding `Cc1ccc(S(=O)(=O)NC(CN)C(=O)O)cc1` (stereo not drawn), the GI50 with HCT-116, in the experiment with RPMI-8226, in the experiment with SK-MEL-5, in the experiment with DU-145, in the experiment with SW-620 and in the experiment on HOP-62 was > 100 µM (inactive) throughout. The GI50 in the experiment with SK-MEL-28, with HOP-92, with COLO 205, in the experiment on MCF7, in the experiment on BT-549 and in the experiment on Hs-578T was > 100 µM (inactive) throughout. For the same compound, the GI50 with M14, in the experiment with HT-29, in the experiment on NCI-H460, in the experiment with SF-268, in the experiment with NCI-H226 and in the experiment on CAKI-1 was > 100 µM (inactive) throughout.
Consider `Cc1cc2nc(C#N)c(N3CCN(c4ccc([N+](=O)[O-])cc4)CC3)nc2cc1C`, for which the GI50 in the experiment with HCT-116 is > 68.4 µM (inactive); in the experiment with RPMI-8226, > 57.3 µM (inactive); with SK-MEL-5, > 100 µM (inactive); in the experiment on DU-145, > 100 µM (inactive); in the experiment on SW-620, > 100 µM (inactive); with HOP-62, 40.6 µM (inactive). Moreover, the GI50 in the experiment with SK-MEL-28 is > 100 µM (inactive); in the experiment with HOP-92 it was 50.4 µM (inactive); in the experiment with COLO 205 it was > 100 µM (inactive); in the experiment on MCF7 it was > 72.8 µM (inactive); in the experiment with BT-549, > 100 µM (inactive); with Hs-578T, 29.1 µM (inactive). Besides, the GI50 with K562 is > 100 µM (inactive); in the experiment with M14, > 95.9 µM (inactive); in the experiment with HT-29, > 88.5 µM (inactive); in the experiment with NCI-H460 it was > 85.9 µM (inactive); with SF-268 it was > 57.7 µM (inactive); in the experiment on NCI-H226, > 100 µM (inactive). Besides, the GI50 with CAKI-1 is > 70 µM (inactive).
For `C1=N\CCN2CCN(CC/N=C\c3ccc(cc3)OCc3cccc(n3)COc3ccc/1cc3)CC2`, the GI50 in the experiment with HCT-116, in the experiment with RPMI-8226, with DU-145, in the experiment with SW-620, with HOP-62 and in the experiment on SK-MEL-28 was > 50 µM (inactive) throughout. In addition, the GI50 in the experiment with HOP-92 is 40.4 µM (inactive); in the experiment on COLO 205 it was > 50 µM (inactive); in the experiment on MCF7, > 50 µM (inactive); in the experiment on BT-549, > 50 µM (inactive); in the experiment with Hs-578T, 32.7 µM (inactive); in the experiment on K562, > 50 µM (inactive). The GI50 in the experiment with M14, in the experiment with HT-29, in the experiment with NCI-H460, in the experiment on SF-268, with HL-60 and with NCI-H226 was > 50 µM (inactive) throughout.
On to `CC(C)CC1N=C(OCc2ccccc2)OC1=O` (stereo not drawn), for which the GI50 in the experiment on HCT-116 was > 100 µM (inactive); in the experiment on RPMI-8226, > 100 µM (inactive); with SK-MEL-5, 45.7 µM (inactive); in the experiment with DU-145 it was > 100 µM (inactive); with SW-620, > 100 µM (inactive); with HOP-62, > 100 µM (inactive). For the same compound, the GI50 in the experiment on SK-MEL-28 was > 100 µM (inactive); with HOP-92, > 100 µM (inactive); in the experiment with COLO 205 it was > 10 µM (inactive); in the experiment with MCF7, > 100 µM (inactive); with BT-549, > 100 µM (inactive); in the experiment with Hs-578T, > 100 µM (inactive). Further, the GI50 in the experiment on K562 was > 100 µM (inactive); with M14 it was > 100 µM (inactive); in the experiment on HT-29, > 100 µM (inactive); with NCI-H460 it was > 100 µM (inactive); with SF-268, 2.79 µM (inactive); in the experiment with NCI-H226, > 100 µM (inactive). In addition, the GI50 in the experiment on CAKI-1 is > 100 µM (inactive).
Take `C#C/C=C\CCCCCCCCCCCCCC/C=C\CCCCC#CC(O)C#CCCCC/C=C\CCCCCC/C=C/C(O)C#C` (stereo not drawn): the GI50 in the experiment on HCT-116 is 4.67 µM (inactive); in the experiment with SK-MEL-5, 5.89 µM (inactive); in the experiment on DU-145 it was 30.9 µM (inactive); in the experiment on SW-620, 7.5 µM (inactive); in the experiment with HOP-62, > 62.8 µM (inactive); with SK-MEL-28, 21 µM (inactive). The GI50 in the experiment on HOP-92 was 16.4 µM (inactive); in the experiment with COLO 205 it was 14.1 µM (inactive); with MCF7, 5.62 µM (inactive); in the experiment with BT-549 it was > 71.9 µM (inactive); with Hs-578T, 42.5 µM (inactive); in the experiment on K562, 23.8 µM (inactive). The GI50 with M14 is 12.9 µM (inactive); in the experiment on HT-29, 18.3 µM (inactive); in the experiment with NCI-H460, 39.9 µM (inactive); in the experiment with SF-268 it was 17.2 µM (inactive); in the experiment on HL-60, 13 µM (inactive); with NCI-H226, 32.1 µM (inactive). In addition, in the experiment with CAKI-1, the GI50 was 7.69 µM (inactive).
For the compound `Cc1ccc(S(=O)(=O)NNC2(NS(=O)(=O)c3ccc(Cl)cc3)C(Cl)=C(Cl)C(=O)c3ccccc32)cc1` (stereo not drawn), the GI50 with HCT-116 is 17.9 µM (inactive); with RPMI-8226, 5.4 µM (inactive); with SK-MEL-5, 15.2 µM (inactive); in the experiment on DU-145 it was 18.5 µM (inactive); in the experiment with SW-620, 26 µM (inactive); in the experiment with HOP-62, 21.3 µM (inactive). The GI50 in the experiment on SK-MEL-28 was 25.7 µM (inactive); with HOP-92 it was 17.3 µM (inactive); in the experiment with COLO 205, 18.1 µM (inactive); in the experiment on MCF7, 16.4 µM (inactive); in the experiment on BT-549, 14.9 µM (inactive); in the experiment with Hs-578T, 17.2 µM (inactive). Also, the GI50 with K562 was 7.93 µM (inactive); in the experiment with M14, 19 µM (inactive); in the experiment with HT-29, 19.1 µM (inactive); with NCI-H460, 17.9 µM (inactive); in the experiment on SF-268, 14 µM (inactive); with HL-60, 14.4 µM (inactive). For the same compound, the GI50 with CAKI-1 was 18.4 µM (inactive).
